The values that follow come from article PMC3601177 (Oncoimmunology, 2013).

Data set [1] is described as follows: Pharmacokinetics of IM and CGP74588 in patient plasma. The format is in vivo, human. As to conditions: for increase of AUC (0–24 h) at D14 versus D10 / increase of Cmax at D14 versus D10: after IL-2 co-administration D10-D14, IM 400 mg/day; for AUC(0-inf): human, plasma.
Data set [2] deals with lymphocytes, neutrophils and platelets. The data set is described as follows: Blood cell counts during treatment. The format is in vivo, human. As to conditions: between D1 and D10, IM alone.
Data set [3] has as its system GIST with KIT exon 11 mutations. The conditions noted are these: cited from earlier work.

Structures can show the parent of a compound that is named as a salt.

Regarding `Cc1ccc(NC(=O)c2ccc(CN3CCNCC3)cc2)cc1Nc1nccc(-c2cccnc2)n1` [CGP74588, N-desmethyl-imatinib], the “accumulation ratio (D10 to D1 trough concentration ratio)” value in data set [1] (IM 400 mg/day, mean ± SD) stood at 1.93 ± 0.69. Also, in data set [1], the “increase of AUC (0–24 h) at D14 versus D10” value was found to be 61% and the “increase of Cmax at D14 versus D10” value was 49%. Also, in data set [1] (patient #8, IL-2 dose level III, no toxicity), the “AUC (0–24h)” value came to 13400 ng·h/mL. The “AUC (0–24h)” value in data set [1] (patient #10, IL-2 dose level III, grade 3 systemic capillary leak syndrome) came out at 25100 ng·h/mL.
The term AUC(0-inf) denotes the area under the concentration-time curve extrapolated to infinity. Take `Cc1ccc(NC(=O)c2ccc(CN3CCN(C)CC3)cc2)cc1Nc1nccc(-c2cccnc2)n1` [IM, imatinib mesylate]: in data set [2], the “lymphocyte, neutrophil or platelet counts” value was “no significant modifications”. For the same molecule, in data set [3], the “median OS” value was 60 mo and the “median time to progression” value is on record as 27.2 mo. Besides, in data set [1], the “increase of AUC (0–24 h) at D14 versus D10” value came to 61% and the “increase of Cmax at D14 versus D10” value is 49%. The AUC(0-inf) in data set [1] (im, 400 mg/day) was 64100 ng·h/mL. In addition, in data set [1] (oral, 400 mg), the AUC(0-inf) was determined as 39700 ng·h/mL.
